{
  "source": "paper PMC6390093",
  "about": "“Structural basis of small RNA hydrolysis by oligoribonuclease (CpsORN) from Colwellia psychrerythraea strain 34H” (Scientific Reports, 2019)",
  "key": {"CpsORN [1]": {"target": "T1, CpsORN (Colwellia psychrerythraea, UniProt Q47VZ4)", "T1 construct": "gene orn", "assay": "X-ray crystal structure, […] Å", "assay_type": "binding", "details": "5 mM uridine added, 1 mM MnCl2; active site with Mn2+; two molecules per site; text describes a phosphate on U2"}, "CpsORN [2]": {"target": "T1, CpsORN", "assay": "spectrophotometric release of p-nitrophenolate at […] nm", "assay_type": "biochemical", "details": "3 mM substrate, 1 mM MnCl2, 50 mM Tris pH 8.0, 150 mM NaCl, 25 °C, 400 nM protein"}, "CpsORN [3]": {"target": "T2, CpsORN (Colwellia psychrerythraea, UniProt Q47VZ4, D163A)", "T2 construct": "gene orn", "assay": "X-ray crystal structure, […] Å", "assay_type": "binding", "details": "5 mM pNP-TMP, 1 mM MnCl2 added, no metal seen in active site; two molecules per site; inactive mutant"}, "[4]": {"target": "the molecule itself", "assay": "AUC; sedimentation velocity, 0.5 mg/mL CpsORN in 20 mM Tris-HCl pH 8.0, 150 mM NaCl, 45,000 rpm, monitored at 280 nm, SEDFIT"}, "[5]": {"target": "the molecule itself", "assay": "crystal structure; four crystal forms (unliganded, pNP-TMP-bound, linked uridine-bound, separated uridine-bound), sitting- or hanging-drop vapour diffusion at 293 K"}},
  "data": [
    {"molecule": "O=c1ccn([C@@H]2O[C@H](COP(=O)(O)O)[C@@H](O)[C@H]2O)c(=O)[nH]1", "values": [
      {"measurement": "X-ray crystal structure, 2.2 Å", "setting": "CpsORN [1]", "result": "6A4F (separated uridine-bound CpsORN)"}
    ]},
    {"molecule": "Cc1cn([C@H]2C[C@H](O)[C@@H](COP(=O)(O)Oc3ccc([N+](=O)[O-])cc3)O2)c(=O)[nH]c1=O", "note": "[pNP-TMP]", "values": [
      {"measurement": "spectrophotometric release of p-nitrophenolate at 420 nm", "setting": "CpsORN [2]", "result": "CpsORN showed hydrolysis activity toward pNP-TMP in the presence of manganese or magnesium"},
      {"measurement": "X-ray crystal structure, 2.2 Å", "setting": "CpsORN [3]", "result": "The pNP-TMP complexed D163A mutant CpsORN crystal contains two pNP-TMP molecules in the active site"}
    ]},
    {"molecule": "oligoribonuclease from Colwellia psychrerythraea strain 34H (CpsORN), wild-type (enzyme, UniProt Q47VZ4 1-181, looked up, oligoribonuclease (CpsORN) of Colwellia psychrerythraea strain 34H, full-length gene orn, residues 1-181; pET-28a construct with a thrombin site after the His tag; also called unliganded CpsORN; source: E. coli BL21(DE3), purified (Ni-NTA, thrombin cleavage, Superdex 200); not shown: His6, N-terminal, cleaved) MAGNDSNLIWLDLEMTGLEPVEDVILEIAIIITDSELNILAQGPIFAISQTDDVLDNMNPWCIEHHGKSGLTQRCRDSEVSLAHATKESLAFVQEWVPQGKSPMCGNSIGQDRRFINKYMPDFEDHFHYRNLDVSTIKELAKRWKPEVLESVVKTGAHLALDDIKESIAELKVYRELFFKL", "values": [
      {"measurement": "stoichiometry N", "setting": "[4]", "result": 2}
    ]},
    {"molecule": "CpsORN D163A inactive mutant (enzyme, Colwellia psychrerythraea strain 34H, UniProt Q47VZ4 1-181, looked up, oligoribonuclease (CpsORN) of Colwellia psychrerythraea strain 34H, full-length gene orn with Asp163 replaced by alanine; Made from the wild-type plasmid and purified by the same procedure as the wild type; also called D163A mutant; source: E. coli BL21(DE3), purified (Ni-NTA, thrombin cleavage, Superdex 200); not shown: His6, N-terminal, cleaved) MAGNDSNLIWLDLEMTGLEPVEDVILEIAIIITDSELNILAQGPIFAISQTDDVLDNMNPWCIEHHGKSGLTQRCRDSEVSLAHATKESLAFVQEWVPQGKSPMCGNSIGQDRRFINKYMPDFEDHFHYRNLDVSTIKELAKRWKPEVLESVVKTGAHLALDAIKESIAELKVYRELFFKL", "values": [
      {"measurement": "binding result", "setting": "[5]", "result": "binds"}
    ]}
  ]
}
